One experiment deals with HDAC. The following applies: cell-free assay where stated; read-out: IC50 (pan-HDAC); cited from earlier work.
The next experiment deals with HDACs 2, 3, 6, and 10. The following applies: cited from earlier work.
A further experiment deals with HDAC1 (Homo sapiens, UniProt Q13547). The following applies: cell-free assays where stated; cited from earlier work.
A further experiment concerns the target HDAC3 (Homo sapiens, UniProt O15379). The following applies: cell-free where stated; cited from earlier work.
Another experiment has as its target HDAC2 (Homo sapiens, UniProt Q92769). The following applies: cell-free assays where stated; cited from earlier work.
A further experiment addresses HDAC6 (Homo sapiens, UniProt Q9UBN7). The following applies: cell-free assays; cited from earlier work.
The next experiment concerns maize HD1B. The following applies: cell-free assays; cited from earlier work.
A further experiment relates to maize HD1A. The following applies: cell-free assays; cited from earlier work.
The test system of the next experiment is maize HD2. The following applies: cell-free assays; cited from earlier work.
The target of experiment [1] is class III isoenzyme SIRT I (Homo sapiens, UniProt Q96EB6). The following applies: cited from earlier work.
A further experiment relates to HDACs 6 and 7. The following applies: cited from earlier work.
The subject of another experiment is HDACs 2, 4, 10, and 11. The following applies: cited from earlier work.
Experiment [2] relates to HDAC4/5/7/9/11, Sirtuin1, and Sirtuin2. The following applies: cited from earlier work.
The target of another experiment is HDAC8 (Homo sapiens, UniProt Q9BY41). The following applies: cited from earlier work.
The subject of the next experiment is acetylated H4 and H3. The following applies: cited from earlier work.
Experiment [3] has as its system MHC Class I (H-2Kb) bound to OVA257-264 on reactive astrocytes. As to the kind of experiment: OVA257-264 peptide antigen cross presentation assay. Type of experiment: cell-based, mouse. The following applies: for treated cells H-2 kB-OVA positive DRAs: reactive astrocytes without inhibitor more than about 80%. As for the experimental part: To test whether HDAC inhibitors block the ability of reactive astrocytes to cross present exogenous antigen, cells were plated down in 96-well plates at a density of about 500 cells/mm^2. Cells were then treated with HDAC inhibitors for 1 hr prior to the addition of reactive astrocyte driving factors as the concentrations stated above. Cells were incubated for 24 hrs, after which, media was washed out and replaced with media containing the peptide fragment ovalbumin 257-264 (OVA257-264). Cells were then incubated overnight, and then stained for 2 hrs at 37° C. with APC-conjugated antibody against MHC Class I (H-2Kb) bound to OVA257-264, then visualized. The percent of H-2Kb positive cells as a percent of total live cells was determined (FIG. 3).
After 24 hours of treatment, these cells were cultured in the presence of the OVA257264 Peptide (GenScript RP10611 or Sigma S7951). After 12 hours, the cells were live-stained for two hours using a conjugated antibody targeted against an OVA257-264 peptide antigen. The cells were then fixed and imaged using the PerkinElmer Operetta CLS High-Content Analysis System.

The next experiment relates to RelA/P65. Description: Nuclear RelA/P65 in reactive astrocytes. Type of experiment: cell-based, mouse. On the procedure:
For immunocytochemistry, cells were fixed with ice-cold 4% PFA for 15 minutes at room temperature, washed three times with PBS, blocked and permeabilized with 10% donkey serum and 0.1% Triton X-100 in PBS for 1 hr, and then stained with primary overnight followed by three washes with PBS, and then 1 hr incubation with Alexaflour secondary antibodies and DAPI. Stained cells were imaged using the PerkinElmer Operetta CLS High-Content Analysis System and analyzed using automated scripts in PerkinElmer Columbus Image Analysis software. Primary antibodies used were GBP2 (ProteinTech, 11854-1-AP), vimentin (BioLegend, 919101), RelA/P65 (Cell Signaling Tech, 6956), MBP (Abeam, AB7349).

The next experiment relates to CCL5. As to the kind of experiment: CCL5 secretion by reactive astrocytes (ELISA). The following applies: FIG. 4. Format: cell-based, mouse. On the procedure: Astrocytes were plated and treated exactly as described for the antigen cross presentation assay. However, after 24 hrs of incubation with either reactive astrocyte driving factors alone or with HDAC inhibitor treatment, conditioned media from the cells was collected and assayed for CCL5 using a commercially available colorimetric ELISA kit (RnD Cat #: DY478-05). Data was then fit to a standard four parameter logistic (4PL) curve and presented as pg/mL/cell, normalized to reactive astrocytes plus DMSO vehicle (FIG. 4).
Media was collected from mouse P2 primary astrocytes that had been cultured for 24 hrs in the presence of cytokines with and without HDAC3 inhibitors and compared to media from astrocytes not treated with cytokines. The concentration of CCL5, a cytokine secreted by reactive astrocytes, was measured in each of the respective media conditions based on the direct adsorption of CCL5 to a pre-coated capture antibody on the ELISA assay plate. The ELISA sandwich assay was performed according to the manufacturer's instructions (DY478-05, R&D Systems). Relative CCL5 concentration were measured based on absorbance measured by a plate reader.
A general note: An ELISA detects its analyte on a solid surface through an enzyme-linked reagent.

pIC50: −log10 of the molar value. Read-outs that look alike come from different tables or passages of the source. Some results are limits rather than exact numbers.

Usually pIC50 stands for the IC50 on a negative log10 scale, so that one unit is a factor of ten.

Chain of HDAC3 (O15379 whole entry, species assumed): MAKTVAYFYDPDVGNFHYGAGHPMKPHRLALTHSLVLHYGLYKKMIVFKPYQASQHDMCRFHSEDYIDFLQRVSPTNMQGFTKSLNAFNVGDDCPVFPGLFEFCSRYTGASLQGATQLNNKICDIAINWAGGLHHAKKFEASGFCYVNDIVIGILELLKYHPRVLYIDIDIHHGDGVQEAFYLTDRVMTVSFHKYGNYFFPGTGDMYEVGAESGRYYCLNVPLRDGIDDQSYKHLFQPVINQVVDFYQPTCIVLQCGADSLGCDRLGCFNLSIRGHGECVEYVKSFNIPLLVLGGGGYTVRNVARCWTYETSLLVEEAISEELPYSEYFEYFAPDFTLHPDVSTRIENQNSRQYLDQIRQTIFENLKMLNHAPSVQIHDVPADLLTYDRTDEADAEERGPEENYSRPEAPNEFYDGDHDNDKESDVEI
Chain of HDAC3 (Q9Y618 395-489 partner limits assumed, species assumed): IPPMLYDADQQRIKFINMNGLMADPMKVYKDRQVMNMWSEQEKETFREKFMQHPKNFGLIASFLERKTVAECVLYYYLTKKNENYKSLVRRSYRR
Chain of HDAC8 (Q9BY41 whole entry, species assumed): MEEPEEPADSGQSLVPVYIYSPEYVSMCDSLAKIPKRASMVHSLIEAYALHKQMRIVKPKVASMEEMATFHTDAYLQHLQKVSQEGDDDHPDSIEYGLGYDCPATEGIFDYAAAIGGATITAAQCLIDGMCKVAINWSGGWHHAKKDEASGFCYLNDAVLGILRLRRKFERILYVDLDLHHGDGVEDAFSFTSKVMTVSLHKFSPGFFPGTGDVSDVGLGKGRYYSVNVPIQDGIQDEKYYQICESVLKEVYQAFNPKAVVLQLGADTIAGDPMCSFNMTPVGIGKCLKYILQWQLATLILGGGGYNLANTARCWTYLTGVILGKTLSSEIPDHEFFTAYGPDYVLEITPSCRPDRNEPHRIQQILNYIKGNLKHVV
Chain of HDAC1 (Q13547 whole entry, species assumed): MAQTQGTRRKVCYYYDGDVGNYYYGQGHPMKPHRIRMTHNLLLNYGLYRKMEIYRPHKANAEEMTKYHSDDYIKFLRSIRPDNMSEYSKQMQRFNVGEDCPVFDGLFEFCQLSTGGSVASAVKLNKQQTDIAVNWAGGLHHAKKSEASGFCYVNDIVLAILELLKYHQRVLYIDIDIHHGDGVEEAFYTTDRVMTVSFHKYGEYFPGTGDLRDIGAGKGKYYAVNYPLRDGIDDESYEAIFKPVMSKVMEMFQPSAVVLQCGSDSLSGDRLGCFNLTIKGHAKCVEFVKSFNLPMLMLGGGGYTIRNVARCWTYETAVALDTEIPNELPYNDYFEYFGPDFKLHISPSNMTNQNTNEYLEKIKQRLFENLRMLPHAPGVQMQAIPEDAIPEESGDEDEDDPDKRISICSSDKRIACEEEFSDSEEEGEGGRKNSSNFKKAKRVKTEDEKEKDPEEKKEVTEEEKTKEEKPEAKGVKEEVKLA
Chain of HDAC2 (Q92769 whole entry, species assumed): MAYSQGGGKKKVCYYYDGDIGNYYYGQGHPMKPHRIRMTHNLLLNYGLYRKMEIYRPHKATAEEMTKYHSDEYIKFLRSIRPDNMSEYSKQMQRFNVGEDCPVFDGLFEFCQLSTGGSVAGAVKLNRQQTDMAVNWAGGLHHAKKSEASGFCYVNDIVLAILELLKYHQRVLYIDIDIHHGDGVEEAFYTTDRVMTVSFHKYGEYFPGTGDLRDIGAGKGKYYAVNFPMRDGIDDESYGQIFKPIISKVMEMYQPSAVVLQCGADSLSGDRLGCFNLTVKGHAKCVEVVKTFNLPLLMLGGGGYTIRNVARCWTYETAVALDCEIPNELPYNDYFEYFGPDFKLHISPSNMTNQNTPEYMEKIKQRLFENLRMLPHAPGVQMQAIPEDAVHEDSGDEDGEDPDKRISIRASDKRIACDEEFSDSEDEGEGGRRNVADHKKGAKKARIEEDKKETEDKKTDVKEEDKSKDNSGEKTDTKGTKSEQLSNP
Chain of HDAC6 (Q9UBN7 whole entry, species assumed): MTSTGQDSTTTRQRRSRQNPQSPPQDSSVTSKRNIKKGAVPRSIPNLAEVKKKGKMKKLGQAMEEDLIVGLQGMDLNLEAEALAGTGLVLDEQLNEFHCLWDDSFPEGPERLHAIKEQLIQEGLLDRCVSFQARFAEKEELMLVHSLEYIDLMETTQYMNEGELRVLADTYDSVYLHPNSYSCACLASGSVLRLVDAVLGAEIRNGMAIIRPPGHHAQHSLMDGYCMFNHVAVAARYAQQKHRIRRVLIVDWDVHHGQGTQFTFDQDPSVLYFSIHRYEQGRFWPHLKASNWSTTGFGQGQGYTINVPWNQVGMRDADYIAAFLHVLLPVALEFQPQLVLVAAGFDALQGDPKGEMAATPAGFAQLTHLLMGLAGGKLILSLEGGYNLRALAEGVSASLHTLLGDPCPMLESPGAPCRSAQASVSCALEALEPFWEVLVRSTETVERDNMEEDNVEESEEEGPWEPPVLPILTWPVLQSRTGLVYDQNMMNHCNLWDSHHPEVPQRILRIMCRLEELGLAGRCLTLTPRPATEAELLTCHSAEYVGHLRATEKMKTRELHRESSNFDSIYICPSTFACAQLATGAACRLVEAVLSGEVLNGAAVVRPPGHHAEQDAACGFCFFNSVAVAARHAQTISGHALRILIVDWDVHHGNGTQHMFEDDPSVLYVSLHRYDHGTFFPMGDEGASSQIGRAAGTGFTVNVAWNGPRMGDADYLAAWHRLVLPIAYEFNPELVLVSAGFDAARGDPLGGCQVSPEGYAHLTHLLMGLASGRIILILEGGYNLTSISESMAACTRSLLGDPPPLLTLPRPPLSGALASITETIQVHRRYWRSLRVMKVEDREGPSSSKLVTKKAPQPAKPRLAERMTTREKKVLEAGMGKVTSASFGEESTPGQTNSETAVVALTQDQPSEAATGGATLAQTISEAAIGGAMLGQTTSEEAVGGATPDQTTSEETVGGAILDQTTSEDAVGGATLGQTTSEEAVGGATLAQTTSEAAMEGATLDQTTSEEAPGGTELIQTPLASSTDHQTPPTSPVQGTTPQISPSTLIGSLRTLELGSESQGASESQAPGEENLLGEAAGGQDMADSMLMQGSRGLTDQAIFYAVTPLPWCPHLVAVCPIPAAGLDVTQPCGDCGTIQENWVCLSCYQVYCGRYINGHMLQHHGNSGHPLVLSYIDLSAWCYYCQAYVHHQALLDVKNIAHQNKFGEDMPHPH
Chain of class III isoenzyme SIRT I (Q96EB6 whole entry): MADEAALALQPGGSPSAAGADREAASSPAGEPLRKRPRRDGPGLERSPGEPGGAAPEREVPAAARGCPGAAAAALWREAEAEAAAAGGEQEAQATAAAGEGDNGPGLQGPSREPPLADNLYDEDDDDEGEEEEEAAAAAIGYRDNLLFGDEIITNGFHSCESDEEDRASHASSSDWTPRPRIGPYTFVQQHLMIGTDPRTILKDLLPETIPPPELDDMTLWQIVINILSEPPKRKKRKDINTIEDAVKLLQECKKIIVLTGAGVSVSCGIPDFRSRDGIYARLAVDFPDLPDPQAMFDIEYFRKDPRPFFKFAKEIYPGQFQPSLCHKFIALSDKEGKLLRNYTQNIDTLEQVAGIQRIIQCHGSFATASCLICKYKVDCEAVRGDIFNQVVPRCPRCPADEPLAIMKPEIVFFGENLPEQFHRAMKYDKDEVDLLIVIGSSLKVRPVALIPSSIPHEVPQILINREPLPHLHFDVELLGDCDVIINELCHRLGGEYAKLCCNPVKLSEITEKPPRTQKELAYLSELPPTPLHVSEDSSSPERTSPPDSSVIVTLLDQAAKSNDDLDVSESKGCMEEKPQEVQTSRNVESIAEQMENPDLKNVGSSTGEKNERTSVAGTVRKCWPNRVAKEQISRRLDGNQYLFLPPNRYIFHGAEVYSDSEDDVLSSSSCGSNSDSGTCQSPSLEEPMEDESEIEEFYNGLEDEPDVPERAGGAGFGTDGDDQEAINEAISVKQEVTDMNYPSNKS

As to `CC(C)[C@H](C(=O)Nc1ccc(C(=O)NO)cc1)c1ccccc1` [AR-42], in the experiment on HDAC, the pIC50 is 7.52.

Consider `CN(C)Cc1c(C(=O)NCCOc2ccc(C(=O)NO)cc2)oc2ccccc12` [Abexinostat], for which, in the experiment on HDACs 2, 3, 6, and 10, the “potency to HDACs 2, 3, 6, and 10” value was “modest potent to HDACs 2, 3, 6, and 10 and greater”.

For `Nc1ccccc1NC(=O)c1cnccn1` [BG45], the negative logarithm of the IC50 (pIC50) was 5.70 on HDAC1, 6.54 at HDAC3, 5.66 on HDAC2 and less than 4.70 at HDAC6.

Consider `O=C(/C=C/c1ccc(CN(CCO)CCc2c[nH]c3ccccc23)cc1)NO` [Dacinostat], for which the pIC50 with HDAC was 7.49.

`CCN(CC)Cc1ccc2cc(COC(=O)Nc3ccc(C(=O)NO)cc3)ccc2c1` [Givinostat]: the pIC50 with maize HD1B is 8.12; with maize HD1A it was 7.80; in the experiment with maize HD2 it was 8.00.

As for `CN(C)c1ccc(C(=O)NCCCCCCC(=O)NO)cc1` [M344], the pIC50 in the experiment on HDAC was 7.00.

As to `CCCCc1nc2cc(/C=C/C(=O)NO)ccc2n1CCN(CC)CC` [Pracinostat], in the experiment with HDAC, the pIC50 is 6.85 to 7.40. For the same compound, the “activity against the class III isoenzyme SIRT I” value in experiment [1] is “no”.

With `Cn1cc(CNCC2CCN(c3ncc(C(=O)NO)cn3)CC2)c2ccccc21` [Quisinostat], in the experiment on HDACs 6 and 7, the “potency to HDACs 6 and 7” value is “selectivity against HDACs 3, 5, 8, and 9 and lowest”. The “potency to HDACs 2, 4, 10, and 11” value in the experiment with HDACs 2, 4, 10, and 11 was “modest potent”.

Take `O=C(CCCCCCNC(=O)c1cnc(N(c2ccccc2)c2ccccc2)nc1)NO` [Rocilinostat]: the “activity against HDAC4/5/7/9/11, Sirtuin1, and Sirtuin2” value in experiment [2] was “minimal”. For the same compound, the “activity against HDAC8” value at HDAC8 was “slight activity”.

With `O=C(CCCCCN1C(=O)c2cccc3cccc(c23)C1=O)NO` [Scriptaid], the “effect on acetylated H4 versus H3” value with acetylated H4 and H3 is “greater effect on acetylated H4 than H3”.

For `Nc1ccccc1NC(=O)c1ccc(-c2cn(CCc3ccsc3)nn2)cc1` [T247], the “ability of reactive astrocytes to cross present antigen on MHC Class I” value in experiment [3] (FIG. 3) is reported as “decrease”. Moreover, the “treated cells H-2 kB-OVA positive DRAs” value was “about 8%” in [3] (about 2.5 μM) and “about 20%” in experiment [3] (about 5.0 μM). The “nuclear RelA/P65” value was “decreases” in the experiment with RelA/P65 and “decreased” with RelA/P65 (listed as T24710). Moreover, the pIC50 on HDAC3 was 7.26. For the same compound, the “secretion of CCL5 by reactive astrocytes” value in the experiment on CCL5 is recorded as “significantly decrease”.

Consider Trichostatin A, for which the negative-log IC50 (pIC50) in the experiment with HDAC was roughly 8.74.

Values taken from patent publication US20250000847A1, “TREATMENT OF NEURODEGENERATIVE DISEASES WITH HDAC INHIBITORS” (CASE WESTERN RESERVE UNIVERSITY, priority 2021, published 2025).
